In PubChem BioAssay (NCI):
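Step 1: Grow cells in 96-well plates. Step 2: Expose to compound for 48 hours at 5 concentrations. Step 3: Interpolate endpoints linearly; if unreached, use highest concentration. GI50 is the concentration that inhibits growth by half. The concentration for full growth arrest is given as TGI.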

How the values were obtained:
Test in all cases: inhibition of tumour cell growth, NCI panel, 48 h
MDA-MB-435 = tested on: MDA-MB-435
M14 melanoma = tested on: M14 melanoma
OVCAR-3 ovarian = tested on: OVCAR-3 ovarian
OVCAR-8 ovarian = tested on: OVCAR-8 ovarian
SF-295 CNS = tested on: SF-295 CNS
SNB-75 CNS = tested on: SNB-75 CNS
MDA-N = tested on: MDA-N
RXF 393 renal = tested on: RXF 393 renal
UACC-257 melanoma = tested on: UACC-257 melanoma
NCI-H23 lung = tested on: NCI-H23 lung

Structure (SMILES)	TGI (MDA-MB-435) [µM]	TGI (M14 melanoma) [µM]	TGI (OVCAR-3 ovarian) [µM]	TGI (OVCAR-8 ovarian) [µM]	TGI (SF-295 CNS) [µM]	TGI (SNB-75 CNS) [µM]	TGI (MDA-N) [µM]	TGI (RXF 393 renal) [µM]	TGI (UACC-257 melanoma) [µM]	TGI (NCI-H23 lung) [µM]	GI50 (OVCAR-3 ovarian) [µM]	GI50 (OVCAR-8 ovarian) [µM]	GI50 (SF-295 CNS) [µM]	GI50 (SNB-75 CNS) [µM]	GI50 (RXF 393 renal) [µM]	GI50 (UACC-257 melanoma) [µM]	GI50 (NCI-H23 lung) [µM]	GI50 (MDA-MB-435) [µM]	GI50 (M14 melanoma) [µM]
Cc1nc2sc3cccc(Cl)c3n2c(=O)c1N=Nc1ccc(Cl)cc1	> 100	> 100	> 100	> 100	> 100	> 100	> 100	> 100	> 100	> 100									
CCN(CC)CCNc1ccc2ncn3c4ccc(O)cc4c(=O)c1c23	18.4	9.05	13.6	9.55	15.1	11.6	17.9	1.96	21.2	13.8									
CCOC(=O)c1c2c(n(-c3ccc(C)cc3)c1C)-c1ccccc1C(=O)C2(C(=O)OCC)C(=O)OCC	93.5	> 100	69.2	98.4	> 100	> 91.4		75.2	> 100	> 100									
O=C(CSCC(=O)N/N=C/c1cccc(O)c1)N/N=C/c1cccc(O)c1	> 100	> 100	> 100	> 100	> 100	> 100		> 100	> 100	> 100									
COC(=O)c1cc2c(cc1Cl)Sc1nnc(Nc3ccccc3)n1S2(=O)=O	22.7	17.5	3.36	> 33.1	12.7	17.1		5.96	21.7	6.71									
O=S(=O)(/N=C(\NO)Nc1ccc(Cl)cc1)c1cc(C(F)(F)F)cc(C(F)(F)F)c1	37.6	32.1	34.8	34.5	36.4	33.1	36.1	41	42.4	36.6									
C=CCNC(=O)C(C)C1CCC2(C)C=CC(=O)C(C)=C2C1O (configuration not stated)			> 100	> 100	> 100	> 100		> 100	> 100	> 100									
O=[N+]([O-])c1ccc(/C=N/Nc2nc3ccccc3[nH]2)o1	18	27.6	28.1	38	41.7	36.4	31.7	28.2	> 100	43.6									
CN1C(=O)CC(=O)N1/C(=C/c1ccccc1)c1ccccc1	> 100	> 100	> 100	> 100	> 100	> 100	> 100	54.1	> 100	> 100									
O=C1c2cc(O)c(O)cc2O[C@H](c2ccc(O)c(O)c2)[C@H]1O	> 100	> 100	> 100	> 100	> 100	> 100	> 100		> 100	> 100									
Oc1ccc(C(=C(Br)c2ccccc2)c2ccc(O)cc2)cc1	3.45	15.3	8.99	22.2	25.6		4.1	27.2	25.2	23.7									
CC(SC(=S)N1CCOCC1)C(=O)Nc1nnc(-c2ccc(Cl)cc2)o1 (configuration not stated)	> 100	> 100	> 100	> 100		> 100		> 100	> 100	> 100									
C=C(C#N)C(=O)OCC(CC)CC.C=C(C#N)C(=O)OCC(CC)CC.CS(C)=O.CS(C)=O.Nc1c(N=Nc2ccc(-c3ccc(N=Nc4cc(S(=O)(=O)[O-])c5ccccc5c4N)cc3)cc2)cc(S(=O)(=O)[O-])c2ccccc12.[Pt+2]			> 58	42.3	> 100	> 100		51.1	31.8	> 100	25.9	19.2	98.4	65.4	19.5	17.4	40.7		
Cc1ccc(S(=O)(=O)OC2CC(C(C)(C)C)CCC2c2ccccc2)cc1 (configuration not stated)	> 100	> 100	> 100	> 100	> 100	68	> 100	> 100	> 100	> 100									
COc1ccc(OC)c2sc(N3C(=O)/C(=C/c4cccc(Oc5ccccc5)c4)N=C3c3ccccc3)nc12	> 100	> 100	> 100	> 100	> 100	> 100	> 100	> 100	> 100	> 100									
COc1ccc2nc3c(c(N)c2c1)C1CCC3C1(C)C (configuration not stated)	> 100	33.6	> 100	> 100	69.7	> 100		81.5	40.5	> 100									
O=C1c2cc3c(cc2-c2c1c1ccc(Cl)cc1c(=O)n2C[C@H](O)CO)OCO3	0.271	0.244	0.316	2.98	0.341	1.1		0.126	0.604	0.714	0.0615	0.0521	< 0.01	0.0245	0.0275	0.13	0.0366	0.0691	0.025
Cc1ccc(S(=O)(=O)N(CC(O)COc2ccccc2)c2c(F)cccc2F)cc1 (configuration not stated)	30.5	32	30.3	35.5	86	49	31.4	26.1	44.5	44.8									
CSc1nncc(-c2cc3c(c(SC)n2)CCCC3)n1	> 100	> 100	> 100	> 100	> 100	> 100	> 100	> 100	> 100	> 100									
O=c1[nH]c2[nH]c(=S)[nH]c(=S)c2[nH]1	> 100	> 100		> 100	> 100		> 100	> 100	> 100	> 100									
Cc1cccc2sc(NC(=O)NS(=O)(=O)n3cnc4ccccc43)nc12	> 100	> 100	46.8	67.1	50.1	63.3	> 100	49.1	74.8	43.6									
O=C1C(Cl)N(c2ccccc2Cl)C1c1c[nH]c2ccccc12 (configuration not stated)		> 100	> 100	> 100	> 100	> 100		> 100	> 100	> 100									
